Values after ≈ are worked out from the molar mass of the structure shown. Like-named read-outs stand apart in the source and are kept apart here.
How the values were obtained:
[1] = target: T1, Dictyostelium discoideum myosin II motor domain (DdMD) (Dictyostelium discoideum, UniProt P08799); test: biochemical; settings: for IC50: 20 °C
T1 construct: Dictyostelium discoideum myosin II motor domain (DdMD)
T1 sequence (P08799 86-759 limits assumed): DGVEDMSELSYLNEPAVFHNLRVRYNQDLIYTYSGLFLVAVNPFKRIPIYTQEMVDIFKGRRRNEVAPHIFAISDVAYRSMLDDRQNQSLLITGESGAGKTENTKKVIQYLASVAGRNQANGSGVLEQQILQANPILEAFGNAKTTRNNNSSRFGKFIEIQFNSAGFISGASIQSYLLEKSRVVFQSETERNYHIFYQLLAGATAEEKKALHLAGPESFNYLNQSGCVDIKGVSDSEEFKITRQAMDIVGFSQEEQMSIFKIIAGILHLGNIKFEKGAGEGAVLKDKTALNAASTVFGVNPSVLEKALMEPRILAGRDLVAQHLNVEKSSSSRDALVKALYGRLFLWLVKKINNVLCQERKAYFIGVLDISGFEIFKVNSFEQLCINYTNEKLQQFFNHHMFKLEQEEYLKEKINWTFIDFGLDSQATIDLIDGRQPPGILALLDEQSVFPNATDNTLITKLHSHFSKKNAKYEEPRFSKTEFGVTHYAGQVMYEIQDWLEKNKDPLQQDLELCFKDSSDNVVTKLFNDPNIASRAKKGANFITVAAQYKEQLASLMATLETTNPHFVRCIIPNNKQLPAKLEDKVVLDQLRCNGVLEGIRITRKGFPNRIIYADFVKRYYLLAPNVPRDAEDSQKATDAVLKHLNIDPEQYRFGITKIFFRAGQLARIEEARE
Procedure: Myosin and actin together with the indicated concentration of the inhibitor were pre-incubated for 5 minutes at room temperature and the measurements were initiated with 1 mM ATP. Data were corrected for background ATPase activity of actin. G-actin was prepared accordingly from rabbit skeletal muscle[24] and polymerized by 2 mM MgCl2 for 1 hour at room temperature. Measurements were performed in low salt buffer containing 5 mM HEPES, 2 mM MgCl2, 0.1 mM EGTA and 2 mM DTT at pH 7.2 or assay buffer containing 20 mM HEPES, 40 mM NaCl, 4 mM MgCl2 at pH 7.3 for basal ATPase activity measurements with DdMD.

[2] = pH 7.3
Procedure: 50 μM of the inhibitors were dissolved in assay buffer (see Experimental Procedures) containing 0.1 or 1 vol/vol% DMSO, centrifuged at the indicated times and the concentration of the supernatants were determined at each time point (Fig. 2a,b).
The DMSO content was 1%. […] The experiments were repeated three times.

[3] = system: HeLa Kyoto H2B-mCherry eGFP-α-tubulin cells; test: Cell growth assay (cell number, cytokinesis)
Procedure: Cells incubated in different concentrations of the inhibitors were counted on each day for three days.

zebrafish embryos = test: Lifespan cytotoxicity assay; settings: all blebbistatin concentrations
Procedure: Transgenic Tg(−8.0cldnb:lynEGFP)^zf106 (cldnb:EGFP)[25] zebrafish (Danio rerio) were maintained in the animal facility of Eötvös Loránd University. For the experiments investigating the skeletal and heart muscle of zebrafish, 6 dpf embryos were used. For cytotoxicity assays, 2 dpf embryos were dechorionated and placed in the indicated reagent concentrations. Embryos were kept in E3 medium (5 mM NaCl, 0.33 mM MgCl2, 0.33 mM CaCl2 and 0.17 mM KCl).
For the fast escape response experiments, 6 dpf embryos were placed in 50 μl drops of E3 medium on a plastic plate. […] 10 taps were carried out with 1 minute intervals every hour for 4 hours. The tapping force was standardized. The videos were recorded by a Ximea Camera (MQ003MG-CM) at 500 fps for 2 s. Data were analyzed by Flote software version 2.1 and maximal angular velocity parameters of C-start reflex were quantified. For the experiments investigating the effect of the inhibitors on the heart muscle of zebrafish, 6 dpf larvae were embedded in 1% agarose and kept in E3 in the presence of 20 μM concentrations of the inhibitors. […] Embryos were considered to be dead when the whole body became necrotic and the heart stopped beating. Dead embryos were removed from the experiment to prevent contamination. Images of zebrafish were captured with a Zeiss Stereo Lumar V12 microscope using a NeoLumar S 0.8x FWD 80mm objective at 50× zoom.

[4] = system: rabbit skeletal muscle myosin II; set-up: method as in PMID 15205456; settings: cited from earlier work
HeLa cells = system: HeLa cells; set-up: method as in PMID 15676022; settings: compared to 100% of the control; cited from earlier work
[5] = Photoconversion / photostability under 480 ± 10 nm irradiation; settings: 5 μM, up to 15 minutes
Procedure: We compared para-aminoblebbistatin’s photostability to blebbistatin’s by irradiating the molecules in assay buffer at 480 ± 10 nm for different lengths of time (which is a typical GFP excitation range) and recorded the absorption spectra afterwards (Fig. 2d).
Their absorbance spectra were measured at each time point.

SMILES | Maximal inhibition of actin activated ATPase of DdMD [1] | Maximal inhibition of basal ATPase of DdMD [1] | IC50 ([1]; 15 μM actin, read-out: IC50 actin activated ATPase activity of DdMD) | IC50 ([1]; read-out: IC50 basal ATPase of DdMD) | Fold higher IC50 of AmBleb on DdMD ([1]; comparator not named (matches actin activated ratio to Bleb)) | Time the supernatant concentration stayed constant ([2]; 298 μM) | Solubility [2] | IC50 ([3]; Homo sapiens, HeLa Kyoto, 72 h, read-out: IC50 of the inhibition of cell proliferation) | Fold weaker IC50 than blebbistatin's (cell proliferation) ([3]; day 3) | Time at which all embryos died (zebrafish embryos) | on-rate constant kon [4] | Motility of HeLa cells on 2D surfaces (HeLa cells) | Photostability: change of absorption spectrum on irradiation [5]
Cc1ccc2c(c1)C(=O)[C@]1(O)CCN(c3ccc(N)cc3)C1=N2 [para-aminoblebbistatin] | 80% | 90% | 6.7 ± 1.9 µM | 6.6 ± 2 µM | 1.7 times | 4 h | 426 ± 1.7 µM (≈ 131 µg/mL) | 17.8 ± 4.7 µM | 2–3 times |  |  |  | 
Cc1ccc2c(c1)C(=O)C1(O)CCN(c3ccccc3)C1=N2 (stereo not shown) [blebbistatin] |  |  |  |  |  |  |  |  |  | 69 h | 3400 M⁻¹ s⁻¹ | ~ 140% | changed markedly

— PMC4886532, “A highly soluble, non-phototoxic, non-fluorescent blebbistatin derivative” (Scientific Reports, 2016)
